In one test the test system is HT-1197 cells. In words: Cell-based assay: anti-proliferative activity, Cell Counting Kit-8, 72 hours (HT-1197, negative control without MELK expression). The settings on record: Homo sapiens, HT1197, 72 h, HT1197 cells, no MELK expression (negative control); Cell Counting Kit-8 at 72 hours. Summed up:
(§1)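 IC50 values come from CCK-8 growth measurements taken 72 hours post-treatment of plated cells with test compounds. Expression of MELK across the panel was assessed through immunoblot of unfractionated lysates.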
Background: Tetrazolium assays rely on reduction of a dye to a coloured formazan, in cell work by metabolically active cells.

The next test has as its system T47D cells. The test can be described thus: Cell-based assay: anti-proliferative activity, Cell Counting Kit-8, 72 hours (T47D). The settings on record: Homo sapiens, T47D, 72 h, MELK-expressing, Cell Counting Kit-8 at 72 hours. The essentials: as §1
For another test, the system named is A549 cells. The test can be described thus: Cell-based assay: anti-proliferative activity, Cell Counting Kit-8, 72 hours (A549). The settings on record: Homo sapiens, A549, 72 h, MELK-expressing, Cell Counting Kit-8 at 72 hours. Summed up: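 A549 cells were seeded in 96-well plates and exposed to candidate inhibitors for 72 hours. Cell growth was then measured with Cell Counting Kit-8, and IC50 values were calculated from the resulting growth data.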

In another test the test system is BT-549 cells. In words: Cell-based assay: anti-proliferative activity, Cell Counting Kit-8, 72 hours (BT-549). The settings on record: Homo sapiens, BT-549, 72 h, BT549 cells, MELK-expressing; Cell Counting Kit-8 at 72 hours. Here is the method: To evaluate the expression status of MELK in several cell lines, western blot analysis was performed using crude cell lysate collected from those cells. Anti-MELK antibody (clone 31, BD Biosciences) was used to visualize the expression.
Active candidate inhibitors against MELK were evaluated for their target-specific cytotoxicity using T47D, A549, BT-549, and HT-1197 cells was used for negative control. 100 micro-L of cell suspension was seeded onto 96-well microtiter plate (ViewPlate-96FTC, PerkinElmer). The initial cell concentration of T47D, A549, BT-549, and HT-1197 were 3,000 cells/well, 2,000 cells/well and 2,500 cells/well, respectively. Cellular growth was determined using Cell Counting Kit-8 (DOJINDO) at 72 hours after the exposure of the candidate inhibitors. […] Accurate IC50 values were calculated as described previously.

In a further test the target is MELK (Homo sapiens, UniProt Q14680). In words: Kinase assay: MELK activity, phosphorylation of FITC-labeled histone H3 peptide measured by IMAP fluorescence polarization. The class given is biochemical. The settings on record: 50 micro-M ATP, FITC-labeled histone H3 peptide substrate, IMAP fluorescence polarization; read-out: IC50 (μM) (kinase assay). Summed up: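 Substrate is FITC-labeled histone H3 peptide. Compounds come from a 12.5 mM DMSO stock, diluted so assay DMSO is 1%. The stop step adds threefold-volume progressive binding solution, followed by 0.5 h at room temperature and an FP read.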
Background: Fluorescence polarisation rises when a labelled molecule tumbles more slowly, as on binding a larger partner.

By IC50 is commonly meant the concentration at which inhibition is half-maximal.

Structures can show the parent of a compound that is named as a salt.

Sequence of MELK (Q14680 whole entry, looked up): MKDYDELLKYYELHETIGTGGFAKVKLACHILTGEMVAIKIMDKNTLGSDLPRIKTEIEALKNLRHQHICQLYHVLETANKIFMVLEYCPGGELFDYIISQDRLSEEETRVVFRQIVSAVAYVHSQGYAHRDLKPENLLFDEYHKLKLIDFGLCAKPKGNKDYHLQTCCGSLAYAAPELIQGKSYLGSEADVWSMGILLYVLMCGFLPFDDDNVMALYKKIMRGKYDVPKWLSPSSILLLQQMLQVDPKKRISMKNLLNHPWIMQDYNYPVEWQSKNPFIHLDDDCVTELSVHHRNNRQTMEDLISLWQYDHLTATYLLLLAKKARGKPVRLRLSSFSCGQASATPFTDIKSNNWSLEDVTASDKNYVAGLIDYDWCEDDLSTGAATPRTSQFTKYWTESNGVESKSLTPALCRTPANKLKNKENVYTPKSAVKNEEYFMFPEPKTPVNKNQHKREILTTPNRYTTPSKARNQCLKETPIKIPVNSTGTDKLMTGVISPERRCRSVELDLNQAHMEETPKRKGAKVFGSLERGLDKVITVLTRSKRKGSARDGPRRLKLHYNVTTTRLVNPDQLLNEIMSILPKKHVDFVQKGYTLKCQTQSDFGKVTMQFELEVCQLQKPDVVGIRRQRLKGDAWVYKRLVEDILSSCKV

Consider `CN(C)Cc1ccc(Nc2c(C(=O)C3CC3)cnc3ccc(-c4cc(Cl)c(O)c(Cl)c4)cc23)cc1` [Example 345, Cyclopropyl[6-(3,5-dichloro-4-hydroxyphenyl)-4-{4-[(dimethylamino)methyl]phenylamino}quinolin-3-yl]methanone], for which the IC50 with HT-1197 cells amounted to 0.67 µM; in the test on T47D cells, 0.054 µM; in the test on A549 cells, 0.051 µM; with BT-549 cells, 0.1 µM; on MELK, 0.0032 µM.

Turning to `COc1cc(-c2ccc3ncc(C(=O)C4CC4)c(N4CCC(CN(C)C)CC4)c3c2)ccc1O` [Example 133, Cyclopropyl[4-{4-[(dimethylamino)methyl]piperidin-1-yl}-6-(4-hydroxy-3-methoxyphenyl)quinolin-3-yl]methanone], the concentration for half-maximal inhibition (IC50) in the test on HT-1197 cells amounted to 1.9 µM; with T47D cells it was 0.7 µM; in the test on A549 cells, 0.79 µM; in the test with BT-549 cells, 1.7 µM; at MELK, 0.0036 µM.

For the molecule `CC(C)C(=O)c1cnc2ccc(-c3ccc(O)c(Cl)c3)cc2c1N1CCC(CN2CCCC2)CC1` [Example 318, 1-{6-(3-Chloro-4-hydroxyphenyl)-4-[4-(pyrrolidin-1-ylmethyl)piperidin-1-yl]quinolin-3-yl}-2-methylpropan-1-one], the IC50 in the test with HT-1197 cells was 1.4 µM; with T47D cells, 0.92 µM; in the test with A549 cells, 0.87 µM; in the test with BT-549 cells it was 1.8 µM; on MELK, 0.02 µM.

With `COc1cc(-c2ccc3ncc(S(C)(=O)=O)c(N4CCC(C(C)N(C)C)CC4)c3c2)cc(Cl)c1O` (stereo not drawn) [Example 245, 2-Chloro-4-[4-{4-[1-(dimethylamino)ethyl]piperidin-1-yl}-3-(methylsulfonyl)quinolin-6-yl]-6-methoxyphenol], the IC50 in the test on HT-1197 cells was 2.3 µM; in the test with T47D cells, 0.35 µM; in the test on A549 cells, 0.25 µM; with BT-549 cells it was 0.74 µM; on MELK, 0.0016 µM.

`COc1cc(-c2ccc3ncc(C(=O)C4CC4)c(N4CCC(C(C)N(C)C)CC4)c3c2)cc(Cl)c1O` (stereo not drawn) [Example 250, [6-(3-Chloro-4-hydroxy-5-methoxyphenyl)-4-{4-[1-(dimethylamino)ethyl]piperidin-1-yl}quinolin-3-yl](cyclopropyl)methanone]: the IC50 with HT-1197 cells was determined as 1.7 µM; in the test on T47D cells, 0.16 µM; in the test with A549 cells it was 0.11 µM; in the test on BT-549 cells, 0.61 µM; on MELK, 0.0013 µM.

Turning to `CC(C)C(=O)c1cnc2ccc(-c3cc(Cl)c(O)c(Cl)c3)cc2c1N[C@H]1CC[C@H](N)CC1` [Example 225(a), 1-{4-[trans-4-Aminocyclohexylamino]-6-(3,5-dichloro-4-hydroxyphenyl)quinolin-3-yl}-2-methylpropan-1-one], the IC50 with HT-1197 cells was 2 µM; with T47D cells it was 0.073 µM; with A549 cells, 0.43 µM; in the test on BT-549 cells it was 0.18 µM; at MELK, 0.0025 µM.

In the case of `COc1cc(-c2ccc3ncc(C(=O)C4CC4)c(N4CCC(CN5CCCC5)CC4)c3c2)cc(Cl)c1O` [Example 280, {6-(3-Chloro-4-hydroxy-5-methoxyphenyl)-4-[4-(pyrrolidin-1-ylmethyl)piperidin-1-yl]quinolin-3-yl}(cyclopropyl)methanone], the 50% inhibitory concentration (IC50) came out at 2.9 µM in the test on HT-1197 cells; 0.25 µM with T47D cells; 0.2 µM with A549 cells; 0.71 µM in the test on BT-549 cells; 0.0017 µM at MELK.

For `COc1cc(-c2ccc3ncc(C(=O)CC(C)C)c(N[C@H]4CC[C@H](N)CC4)c3c2)cc(Cl)c1O` [Example 262, dihydrochloride], the IC50 with HT-1197 cells amounted to 2.2 µM; in the test on T47D cells, 0.13 µM; with A549 cells it was 0.36 µM; in the test with BT-549 cells, 0.91 µM; at MELK it was 0.005 µM.

`CCN(CC)C1CCC(Nc2c(C(C)=O)cnc3ccc(-c4cc(Cl)c(O)c(OC)c4)cc23)CC1` (stereo not drawn) [Example 303, 1-{6-(3-Chloro-4-hydroxy-5-methoxyphenyl)-4-[4-(diethylamino)cyclohexylamino]quinolin-3-yl}ethanone]: the concentration for half-maximal inhibition (IC50) in the test on HT-1197 cells was determined as 7.4 µM; in the test on T47D cells it was 0.39 µM; in the test on A549 cells, 0.35 µM; with BT-549 cells, 1.7 µM; on MELK it was 0.0061 µM.

As for `COc1cc(-c2ccc3ncc(C(=O)C4CC4)c(NC4CCN(C)CC4)c3c2)ccc1O` [Example 177, Cyclopropyl[6-(4-hydroxy-3-methoxyphenyl)-4-(1-methylpiperidin-4-ylamino)quinolin-3-yl]methanone], the IC50 in the test on HT-1197 cells is 2.3 µM; with T47D cells it was 0.88 µM; in the test with A549 cells it was 0.83 µM; in the test with BT-549 cells it was 2.6 µM; on MELK, 0.026 µM.

On to `COc1cc(-c2ccc3ncc(C(=O)C4CC4)c(N[C@H]4CC[C@H](N5CCCC5)CC4)c3c2)cc(Cl)c1O` [Example 343, {6-(3-Chloro-4-hydroxy-5-methoxyphenyl)-4-[trans-4-(pyrrolidin-1-yl)cyclohexylamino]quinolin-3-yl}(cyclopropyl)methanone], for which the half-maximal inhibitory concentration (IC50) was found to be 3.4 µM in the test with HT-1197 cells; 0.33 µM with T47D cells; 0.2 µM with A549 cells; 0.68 µM with BT-549 cells; 0.0021 µM at MELK.

Consider `CN(C)[C@H]1CC[C@H](Nc2c(C(=O)C3CC3)cnc3cc(F)c(-c4cc(F)c(O)c(F)c4)cc23)CC1` [Example 294, Cyclopropyl{6-(3,5-difluoro-4-hydroxyphenyl)-4-[trans-4-(dimethylamino)cyclohexylamino]-7-fluoroquinolin-3-yl}methanone], for which the IC50 in the test with HT-1197 cells was found to be 1.5 µM; with T47D cells, 0.68 µM; with A549 cells it was 0.43 µM; with BT-549 cells, 0.55 µM; at MELK it was 0.042 µM.

With `N#Cc1ccc(-c2ccc3ncc(C(=O)C4CC4)c(N[C@H]4CC[C@H](N)CC4)c3c2)s1` [Example 119, 5-{4-[trans-4-Aminocyclohexylamino]-3-(cyclopropanecarbonyl)quinolin-6-yl}thiophene-2-carbonitrile], the half-inhibitory concentration (IC50) in the test with HT-1197 cells was found to be 8 µM; in the test with T47D cells, 8.8 µM; in the test with A549 cells, 5.4 µM; with BT-549 cells it was 14 µM; on MELK it was 0.046 µM.

With `N[C@H]1CC[C@H](Nc2c(C(=O)C3CC3)cnc3ccc(-c4ccncc4)cc23)CC1` [Example 212, {4-[trans-4-Aminocyclohexylamino]-6-(pyridin-4-yl)quinolin-3-yl}(cyclopropyl)methanone], the IC50 is 7.2 µM in the test on HT-1197 cells; 2.7 µM in the test on T47D cells; 0.99 µM in the test on A549 cells; 2.5 µM with BT-549 cells; 0.054 µM on MELK.

As for `CC(C)CC(=O)c1cnc2ccc(-c3cc(Cl)c(O)c(Cl)c3)cc2c1N[C@H]1CC[C@H](N)CC1` [Example 267, 1-{4-[trans-4-Aminocyclohexylamino]-6-(3,5-dichloro-4-hydroxyphenyl)quinolin-3-yl}-3-methylbutan-1-one dihydrochloride], the IC50 with HT-1197 cells was 3 µM; in the test on T47D cells, 0.14 µM; in the test on A549 cells, 0.38 µM; in the test on BT-549 cells it was 0.72 µM; on MELK it was 0.0022 µM.

In the case of `O=C(c1cnc2ccc(-c3ccc(O)c(OC(F)(F)F)c3)cc2c1N1CCC(CN2CCCC2)CC1)C1CC1` [Example 313, Cyclopropyl{6-[4-hydroxy-3-(trifluoromethoxy)phenyl]-4-[4-(pyrrolidin-1-ylmethyl]piperidin-1-yl}quinolin-3-yl)methanone], the half-inhibitory concentration (IC50) with HT-1197 cells was 3.2 µM; with T47D cells, 0.67 µM; in the test on A549 cells, 0.8 µM; in the test with BT-549 cells, 1.3 µM; at MELK, 0.012 µM.

For the molecule `CN1CCN(C2CCN(c3c(C(=O)C4CC4)cnc4ccc(-c5ccc(O)c(Cl)c5)cc34)CC2)CC1` [Example 350, {6-(3-Chloro-4-hydroxyphenyl)-4-[4-(4-methylpiperazin-1-yl)piperidin-1-yl]quinolin-3-yl}(cyclopropyl)methanone], the IC50 with HT-1197 cells is 2.5 µM; with T47D cells it was 0.26 µM; in the test on A549 cells it was 0.44 µM; in the test with BT-549 cells, 0.98 µM; on MELK it was 0.005 µM.

For `CN(C)[C@H]1CC[C@H](CNc2c(C(=O)C3CC3)cnc3ccc(-c4cc(F)c(O)c(Cl)c4)cc23)CC1` [Example 327], the IC50 with HT-1197 cells is 3 µM; with T47D cells it was 0.48 µM; with A549 cells, 0.42 µM; with BT-549 cells it was 1 µM; at MELK it was 0.0055 µM.
